Test results reported in patent US11028128B2, “Inhibition of the aggregation of transthyretin by specific binding of peptides to aggregation-driving segments” (THE REGENTS OF THE UNIVERSITY OF CALIFORNIA, priority 2016, dated 2021).
Where no end group is shown, it is not given here.

Assays:
[1] = biological target: T1, recombinant wild type TTR (Homo sapiens, UniProt P02766); experiment: TTR aggregation assay in the absence of seeds (absorbance at 400 nm); assay type: biochemical; settings: 1 mg/ml recombinant wild type TTR, increasing amounts of stabilizer, 4 days
T1 construct: made in house; host or cells: E. coli
Method: Next we tested the ability of compounds and mutations that stabilize native, tetrameric TTR to halt amyloid formation induced by disease-related amyloid seeds. […] For these aggregation assays, we incubated 1 mg/ml recombinant wild type TTR with increasing amounts of stabilizers.
TTR aggregation assays are described previously (32). […] Protein aggregation was followed by absorbance at 400 nm, anti-TTR immuno-dot blot of the insoluble fraction, and/or transmission electron microscopy.

[2] = biological target: recombinant wild type TTR and ATTR-D38A seeds (Homo sapiens, UniProt P02766); settings: 0.5 mg/ml recombinant TTR, 30 ng/μl ATTR-D38A seeds, increasing compound concentrations
Method: (§1) Fibril extracts were used to seed the formation of new aggregates from recombinant TTR. In order to further purify the extracts, they were treated with 1% sodium dodecyl sulfate and the soluble fraction was discarded after centrifugation at 13,000 rpm for 5 minutes. This process was repeated two times. The sample was washed with distilled water three times by centrifugation, and then sonicated in cycles of 5 seconds on, 5 seconds off, for a total of 10 minutes, at minimum intensity (18%). The protein content was measured using the Pierce™ BCA Protein Assay Kit (ThermoFisher Scientific). Seeds were added to 0.5 mg/ml recombinant TTR in a final volume of 200 μl of 5 μM thioflavin T, 10 mM Sodium Acetate pH 4.3, 100 mM KCl, and 10 mM EDTA. Unless labeled otherwise, cardiac seeds were analyzed at 30 ng/μl concentration and seeds extracted from adipose tissue were analyzed at 5 ng/μl. Thioflavin fluorescence emission was measured at 482 nm with absorption at 440 nm in a Varioskan Flash (ThermoFisher Scientific) or FLUOstar Omega (BMG LabTech) plate readers. Plates were incubated at 37° C. for 20-72 h as labeled with cycles of 9 min shake (700 rpm double orbital) and 1 min rest throughout the incubation. Measurements were taken with automatic gain if read in Varioskan Flash, or with a manual gain of 1,000 if read in FLUOstar Omega, every 10 min, bottom read. We normalized all our assays by subtracting ThT signal at initial point of incubation. Figures show ThT signal in arbitrary units (a.u.). Fibril formation was confirmed by TEM.
(§2) Amyloid seeding assays were performed as described above. 180 μM peptide was added to 0.5 mg/ml recombinant wild type TTR and 30 ng/μl ATTR-D38A seeds. Amyloid seeding was measured after 24 hour of incubation at 37° C. by ThT fluorescence. Thioflavin T signal obtained in the absence of peptide was considered 100%.

[3] = system: recombinant wild type TTR and ATTR-D38A seeds; settings: 180 μM peptide, 0.5 mg/ml recombinant wild type TTR, 30 ng/μl ATTR-D38A seeds, 37° C.; N-methylated peptide as noted in the cell
Method: as §1, §2

fibril formation with ATTR-D38A ex-vivo seeds in presence of stabilizer [2] | Compound | TTR aggregation in the absence of seeds [1] | B. ThT signal (20h, no inhibitor was normalized to 100%, SD = 11.42) [3]
did not reduce or delay fibril formation | O=C(O)c1cc(-c2ccc(F)cc2F)ccc1O [diflunisal] | considerably diminished in a dose-dependent manner | 
did not reduce or delay fibril formation | O=C(O)c1ccc2nc(-c3cc(Cl)cc(Cl)c3)oc2c1 [tafamidis] | considerably diminished in a dose-dependent manner | 
 | RRRRPFHEHAEVVFTA [TabF1] |  | 60.45 ± 3.90 (N-me-A12) %
 | RRRRPYSYSTTAVVTN (not fully specified (residue 12)) [TabH1] |  | 32.48 ± 2.39 (N-me-E11) %
